The values below come from patent US8309073B2, “Combination of probiotics” (Valio Ltd., priority 2001, dated 2012).

A short description of data set [1]: Viability in pH-adjusted MRS broths. As to conditions: for Cell content pH 2: MRS broth adjusted with lactic acid to pH 2, 37° C.; for Cell content pH 2 / Cell content pH 3 / Cell content pH 4: 3 hours; for Cell content pH 3: MRS broth adjusted with lactic acid to pH 3, 37° C.; for Cell content pH 4: MRS broth adjusted with lactic acid to pH 4, 37° C.; for Initial content: before cultivation in pH-adjusted MRS broth. The format is physicochemical. The protocol: The strains were tested at different pH values in MRS broths the pH of which had been adjusted with lactic acid to values pH 4, pH 3 and pH 2. The strain to be studied (fresh culture) was inoculated into a pH broth of 1% and grown at 37° C. for 3 hours, after which the content of live cells was determined using an agar suitable for the strain (see Table 5). The strains maintained their viability in the 3-hour process in a pH value of 3 excellently. […] In the test the bacteria were not protected by components carried by food (such as fat) and therefore they may be assumed to preserve even better when consumed in vivo together with food.

A short description of data set [2]: Bile salt tolerance in MRS broths with Oxgal bile salt. The data set is classed as physicochemical. As to conditions: for Cell content Bile salt 0.3%: MRS broth with 0.3% Oxgal bile salt; for Cell content Bile salt 0.3% / Cell content Bile salt 0.5%: 3 hours, 37° C.; for Cell content Bile salt 0.5%: MRS broth with 0.5% Oxgal bile salt; for Initial content: before cultivation in bile salt MRS broth. As to the method: With regard to bile salt tolerance, the strains were tested in MRS broths that contained 0.3% and 0.5% of Oxgal (Sigma) bile salt by inoculating 1% of the fresh culture into the bile salt MRS broth to be studied. The strains were cultivated in the broths for 3 hours at 37° C., after which the content of live cells was determined using an agar suitable for the strain (see Table 5). All strains survived the treatment excellently.

Data set [3] deals with intestinal mucus. In words: Adhesion of the probiotic strains to intestinal mucus. The format is binding. To be noted: for Adhesion % (+Std.): adhesion to intestinal mucus. As to the method:
Adhesion of the probiotic strains to mucus was tested in accordance with Ouweland et al. (Ouwehand, A. C., Kirjavainen, P. V., Grönlund, M. -M., Isolauri, E., and Salminen, S. J. 1999. Adhesion of probiotic micro-organisms to intestinal mucus. Int. Dairy J. 9:623-630). LGG and probionic bacterium PJS adhered excellently to the intestinal mucus, Bbi99 moderately and LC705 weakly. Adhesion is a prerequisite for the microbe to produce beneficial effects in the intestines. On the other hand, LC705 is known to adhere well to epithet cells, similarly as LGG (Lehto, E. and Salminen S. 1997. Adhesion of two lactobacillus strains, one lactococcus strain and one propionibacterium strain to cultured human intestinal CaCO-2 cell lines. Bioscience Microflora 16: 13-17). This property is beneficial when there is an imbalance in the intestine and the protective mucus has been weakened.

The conditions of data set [4]: prior-art description of the strain; cited from earlier work.
Data set [5] concerns cultured human intestinal CaCO-2 cell lines. As to conditions: literature / prior-art description; cited from earlier work.
Data set [6] has as its system intestinal mucus. As to conditions: prior-art description of the strain; cited from earlier work.

“Also recorded” adds a separate entry of the source. A value given as a limit tells only on which side of the number the result lay.

For “Bifidobacterium infantis Bbi99 (DSM 13692)”, in data set [1], the “Cell content pH 2” value is reported as less than 10 cfu/ml, the “Cell content pH 3” value was less than 10 cfu/ml, the “Cell content pH 4” value is listed as 2 × 10^7 cfu/ml and the Initial content is 1 × 10^7 cfu/ml. In data set [2], the “Cell content Bile salt 0.3%” value is listed as 1 × 10^7 cfu/ml, the “Cell content Bile salt 0.5%” value is given as 1 × 10^7 cfu/ml and the Initial content is reported as 3 × 10^7 cfu/ml. In the data set with intestinal mucus [3], the “adhesion to the intestinal mucus” value is given as “moderately” and the “Adhesion % (+Std.)” value was found to be 4.6 ± 2.3%.

Consider “Lactobacillus rhamnosus GG (ATCC 53103) [LGG]”, for which the “viability in low pH values and high bile acid contents” value in data set [4] was “survives even lower pH values as well as high bile acid contents”. Besides, the “adhesion to epithelial cells” value in data set [5] was “excellent; also recorded: adhere well”. Also, in data set [1], the “Cell content pH 2” value is <10^2 cfu/ml, the “Cell content pH 3” value is reported as 1 × 10^7 cfu/ml, the “Cell content pH 4” value is reported as 2 × 10^7 cfu/ml and the Initial content is 1 × 10^7 cfu/ml. Also, in data set [2], the “Cell content Bile salt 0.3%” value is given as 2 × 10^7 cfu/ml, the “Cell content Bile salt 0.5%” value is listed as 9 × 10^6 cfu/ml and the Initial content is given as 1 × 10^7 cfu/ml. Besides, in the data set with intestinal mucus [3], the “adhesion to the intestinal mucus” value was “excellently” and the “Adhesion % (+Std.)” value is recorded as 26.3 ± 1.3%. Moreover, in the data set with intestinal mucus [6], the “adhesion to mucus (strain description)” value is “excellent”.

For “Lactobacillus rhamnosus LC705 (DSM 7061)”, the “viability in low pH values and high bile acid contents” value in data set [4] is “good”. In data set [5], the “adhesion to epithelial cells” value is on record as “moderately; also recorded: adhere well”. Further, in data set [1], the “Cell content pH 2” value was <10^2 cfu/ml, the “Cell content pH 3” value was 4 × 10^7 cfu/ml, the “Cell content pH 4” value is reported as 2 × 10^8 cfu/ml and the Initial content is given as 6 × 10^7 cfu/ml. Further, in data set [2], the “Cell content Bile salt 0.3%” value was 2 × 10^7 cfu/ml, the “Cell content Bile salt 0.5%” value is reported as 1 × 10^7 cfu/ml and the Initial content is on record as 1 × 10^7 cfu/ml. Besides, in the data set with intestinal mucus [3], the “adhesion to the intestinal mucus” value was “weakly” and the “Adhesion % (+Std.)” value came to 0.7 ± 0.2%. Besides, the “adhesion to mucus (strain description)” value in the data set on intestinal mucus [6] was “weakly”.

For the substance “Propionibacterium freudenreichii ssp. shermanii JS (DSM 7067) [PJS]”, the “viability in low pH values and high bile acid contents” value in data set [4] was “excellent”. Also, in data set [1], the “Cell content pH 2” value is listed as 1 × 10^4 cfu/ml, the “Cell content pH 3” value was 3 × 10^7 cfu/ml, the “Cell content pH 4” value was 9 × 10^7 cfu/ml and the Initial content is recorded as 1 × 10^8 cfu/ml. Moreover, in data set [1] (pH 2, 3 hours), the “viability in pH 2” value is given as “remained viable”. For the same substance, in data set [2], the “Cell content Bile salt 0.3%” value is 6 × 10^7 cfu/ml, the “Cell content Bile salt 0.5%” value was 5 × 10^7 cfu/ml and the Initial content was 6 × 10^7 cfu/ml. In the data set on intestinal mucus [3], the “adhesion to the intestinal mucus” value is listed as “excellently” and the “Adhesion % (+Std.)” value amounted to 24.9 ± 2.2%.
